Positions of bridges follow the written chain, without caps; N, C: chain ends. Non-standard residues stand in square brackets, D forms with d. Residues, ends and D or L forms follow the SMILES beside them. ξ: configuration not given here. *: point of attachment. NMeF = CN[C@@H](Cc1ccccc1)C(=O)O; NMeI = CC[C@H](C)[C@H](NC)C(=O)O; NMeL = CN[C@@H](CC(C)C)C(=O)O; NMeV = CN[C@H](C(=O)O)C(C)C; NMeA = CN[C@@H](C)C(=O)O; Piperidide = C1CCN(*)CC1; ξL = CC(C)CC(N)C(=O)O; Sar = CNCC(=O)O
Test: Metabolic stability in human hepatic microsome
Format: in vitro ADME
Settings: human, microsomes, CL NADPH(+)

With CC[C@H](C)[C@@H]1NC(=O)[C@H](Cc2ccccc2)NC(=O)[C@@H]2CCCN2C(=O)[C@H](CC(C)C)N(C)C(=O)[C@H](Cc2ccccc2)NC(=O)[C@H](CC(C)C)NC(=O)[C@H]([C@@H](C)O)NC(=O)[C@H](C)N(C)C(=O)[C@H](C(C)C)NC(=O)[C@H](C)NC(=O)C[C@@H](C(=O)N2CCCCC2)NC(=O)[C@H](CC(C)C)NC(=O)CN(C)C1=O [DP-21] (AV[NMeA]TLF[NMeL]PFI[Sar]LD-Piperidide; lactam N-13) the microsomal CLint was 25 µL/min/mg.

Same assay, conditions: human, microsomes, pH 7.4, CL NADPH(+)

Point of comparison: CC[C@H](C)[C@H](NC(=O)[C@H](CC(C)C)N(C)C(=O)[C@@H]1CC(=O)N[C@@H](C)C(=O)N[C@@H](Cc2ccccc2)C(=O)N2CCC[C@H]2C(=O)N[C@@H](CC(C)C)C(=O)N[C@@H]([C@@H](C)O)C(=O)N[C@@H](CC(C)C)C(=O)N[C@@H](Cc2ccccc2)C(=O)N(C)[C@@H](C(C)C)C(=O)N[C@@H](C)C(=O)N1)C(=O)N1CCCCC1 [DP-43] (AFPLTLF[NMeV]AD[NMeL]I-Piperidide; lactam N-10), microsomal CLint at 1 uM 44 µL/min/mg. Against it:
- CC(C)C[C@@H]1NC(=O)[C@H](CC(C)C)N(C)C(=O)[C@H](C)N(C)C(=O)[C@H](C(C)C)NC(=O)[C@H](Cc2ccccc2)NC(=O)CNC(=O)[C@H]([C@@H](C)O)NC(=O)[C@H](CC(C)C)NC(=O)[C@@H]2CCCN2C(=O)[C@H](Cc2ccccc2)NC(=O)[C@H](C)NC(=O)C[C@@H](C(=O)N2CCCCC2)NC1=O [DP-23] (AFPLTGFV[NMeA][NMeL]LD-Piperidide; lactam N-12) — 2.4-fold higher, 105 µL/min/mg
- CC[C@H](C)[C@@H]1NC(=O)[C@H](Cc2ccccc2)N(C)C(=O)[C@H](Cc2ccccc2)NC(=O)[C@H](CC(C)C)NC(=O)[C@H](CC(C)C)N(C)C(=O)[C@H](C)N(C)C(=O)[C@H](C(C)C)NC(=O)[C@H](C)NC(=O)C[C@@H](C(=O)N2CCCCC2)NC(=O)[C@H](CC(C)C)N(C)C(=O)[C@H]([C@@H](C)O)NC(=O)[C@@H]2CCCN2C1=O [DP-25] (AV[NMeA][NMeL]LF[NMeF]IPT[NMeL]D-Piperidide; lactam N-12) — 1.8-fold lower, 24 µL/min/mg
- CC[C@H](C)[C@H]1C(=O)N[C@@H](Cc2ccccc2)C(=O)N(C)[C@@H](Cc2ccccc2)C(=O)N[C@@H]([C@@H](C)O)C(=O)N2CCC[C@H]2C(=O)N[C@@H](CC(C)C)C(=O)N[C@H](C(=O)N2CCCCC2)CC(=O)N[C@@H](C)C(=O)NCC(=O)N(C)[C@@H](C(C)C)C(=O)N(C)[C@@H](CC(C)C)C(=O)N[C@@H](C)C(=O)N1C [DP-26] (AG[NMeV][NMeL]A[NMeI]F[NMeF]TPLD-Piperidide; lactam N-12) — within 1.5-fold, 62 µL/min/mg
- CC[C@H](C)[C@@H]1NC(=O)[C@H](C)NC(=O)C[C@@H](C(=O)N2CCCCC2)NC(=O)[C@H](C(C)C)NC(=O)[C@H](Cc2ccccc2)N(C)C(=O)[C@H](CC(C)C)NC(=O)[C@H]([C@@H](C)O)NC(=O)[C@H](Cc2ccccc2)NC(=O)[C@H](C)NC(=O)CN(C)C(=O)[C@H](CC(C)C)NC1=O [DP-28] (AIL[Sar]AFTL[NMeF]VD-Piperidide; lactam N-11) — 2.6-fold higher, 113 µL/min/mg
- CC[C@H](C)[C@@H]1NC(=O)[C@H](CC(C)C)N(C)C(=O)CNC(=O)[C@H](C)NC(=O)C[C@@H](C(=O)N2CCCCC2)NC(=O)[C@@H]2CCCN2C(=O)[C@H](CC(C)C)NC(=O)[C@H](Cc2ccccc2)NC(=O)[C@H]([C@@H](C)O)NC(=O)[C@H](Cc2ccccc2)N(C)C(=O)[C@H](C)N(C)C1=O [DP-30] (AG[NMeL]I[NMeA][NMeF]TFLPD-Piperidide; lactam N-11) — within 1.5-fold, 63 µL/min/mg
- CC[C@H](C)[C@H]1C(=O)N[C@@H](C)C(=O)N(C)[C@@H](Cc2ccccc2)C(=O)N[C@@H]([C@@H](C)O)C(=O)N(C)[C@@H](CC(C)C)C(=O)N[C@@H](Cc2ccccc2)C(=O)N(C)[C@@H](C(C)C)C(=O)N[C@H](C(=O)N2CCCCC2)CC(=O)N[C@@H](C)C(=O)NCC(=O)N(C)[C@@H](CC(C)C)C(=O)N1C [DP-31] (AG[NMeL][NMeI]A[NMeF]T[NMeL]F[NMeV]D-Piperidide; lactam N-11) — within 1.5-fold, 57 µL/min/mg
- CC(C)C[C@@H]1NC(=O)[C@H](C)N(C)C(=O)[C@H](C(C)C)N(C)C(=O)[C@H](Cc2ccccc2)NC(=O)CN(C)C(=O)[C@H]([C@@H](C)O)NC(=O)[C@@H]2CCCN2C(=O)[C@H](CC(C)C)NC(=O)[C@H](C)NC(=O)C[C@@H](C(=O)N2CCCCC2)NC(=O)[C@H](CC(C)C)N(C)C1=O [DP-32] (ALPT[Sar]F[NMeV][NMeA]L[NMeL]D-Piperidide; lactam N-11) — 1.7-fold lower, 26 µL/min/mg
- CC[C@H](C)[C@@H]1NC(=O)[C@H](Cc2ccccc2)N(C)C(=O)[C@H](Cc2ccccc2)NC(=O)[C@H](CC(C)C)N(C)C(=O)[C@H](CC(C)C)NC(=O)[C@H](C)NC(=O)C[C@@H](C(=O)N2CCCCC2)NC(=O)[C@H]([C@@H](C)O)NC(=O)[C@@H]2CCCN2C1=O [DP-33] (AL[NMeL]F[NMeF]IPTD-Piperidide; lactam N-9) — 4.6-fold higher, 202 µL/min/mg
- CC[C@H](C)[C@@H]1NC(=O)[C@H](C)NC(=O)C[C@@H](C(=O)N2CCCCC2)NC(=O)[C@@H]2CCCN2C(=O)C(CC(C)C)NC(=O)[C@H](Cc2ccccc2)N(C)C(=O)[C@H]([C@@H](C)O)NC(=O)[C@H](Cc2ccccc2)N(C)C(=O)[C@H](C)N(C)C1=O (stereo partly drawn) [DP-34] (AI[NMeA][NMeF]T[NMeF][ξL]PD-Piperidide; lactam N-9) — 2.3-fold higher, 102 µL/min/mg
- CC[C@H](C)[C@H](NC(=O)[C@H](C)NC(=O)CNC(=O)[C@@H]1CC(=O)N[C@@H](C)C(=O)N[C@@H](CC(C)C)C(=O)N[C@@H]([C@@H](C)O)C(=O)N(C)[C@@H](CC(C)C)C(=O)N[C@@H](Cc2ccccc2)C(=O)N2CCC[C@H]2C(=O)N[C@@H](C(C)C)C(=O)N[C@@H](Cc2ccccc2)C(=O)N(C)[C@@H](CC(C)C)C(=O)N1)C(=O)N1CCCCC1 [DP-42] (ALT[NMeL]FPVF[NMeL]DGAI-Piperidide; lactam N-10) — 2.6-fold lower, 17 µL/min/mg
- CC[C@H](C)[C@H](NC(=O)[C@@H]1CCCN1C(=O)[C@@H](NC(=O)[C@@H]1CC(=O)N[C@@H](C)C(=O)N[C@@H](CC(C)C)C(=O)N(C)[C@@H](CC(C)C)C(=O)N[C@@H](C)C(=O)N[C@@H](CC(C)C)C(=O)N(C)[C@@H](Cc2ccccc2)C(=O)N[C@@H](Cc2ccccc2)C(=O)N1)[C@@H](C)O)C(=O)N1CCCCC1 [DP-45] (AL[NMeL]AL[NMeF]FDTPI-Piperidide; lactam N-8) — 2.9-fold higher, 129 µL/min/mg
- CC[C@H](C)[C@H](NC(=O)[C@H](CC(C)C)N(C)C(=O)[C@@H](NC(=O)[C@@H]1CC(=O)N[C@@H](C)C(=O)N[C@@H](CC(C)C)C(=O)N[C@@H]([C@@H](C)O)C(=O)N(C)[C@@H](Cc2ccccc2)C(=O)N[C@@H](Cc2ccccc2)C(=O)N(C)[C@@H](C)C(=O)N1)C(C)C)C(=O)N1CCCCC1 [DP-46] (ALT[NMeF]F[NMeA]DV[NMeL]I-Piperidide; lactam N-7) — 5.7-fold higher, 249 µL/min/mg

Same assay, conditions: microsomes, pH 7.4; human hepatic microsome, NADPH(+); read-out: CL NADPH(+)

Point of comparison: CC(C)C[C@@H]1NC(=O)[C@H](C)NC(=O)C[C@@H](C(=O)N2CCCCC2)NC(=O)[C@H](CC(C)C)N(C)C(=O)[C@H](C)NC(=O)[C@H](CC(C)C)NC(=O)[C@H](C(C)C)NC(=O)CNC(=O)[C@H](Cc2ccccc2)NC(=O)[C@H](C)N(C)C(=O)[C@H](CC(C)C)NC(=O)[C@H]([C@@H](C)O)NC(=O)[C@H](Cc2ccccc2)NC1=O [DP-82] (ALFTL[NMeA]FGVLA[NMeL]D-Piperidide; lactam N-13), microsomal CLint at 1 uM 16 µL/min/mg. Against it:
- CC[C@H](C)[C@H]1C(=O)N[C@H](C(=O)N2CCCCC2)CC(=O)N[C@@H](C)C(=O)N[C@@H]([C@@H](C)O)C(=O)N(C)[C@@H](Cc2ccccc2)C(=O)N[C@@H](CC(C)C)C(=O)N2CCC[C@H]2C(=O)N[C@@H](C(C)C)C(=O)N[C@@H](Cc2ccccc2)C(=O)N(C)CC(=O)N[C@@H](CC(C)C)C(=O)N[C@@H](C)C(=O)N1C [DP-24] (AT[NMeF]LPVF[Sar]LA[NMeI]D-Piperidide; lactam N-12) — 3.2-fold higher, 52 µL/min/mg
- CC[C@H](C)[C@H]1C(=O)N[C@H](C(=O)N2CCCCC2)CC(=O)N[C@@H](C)C(=O)N[C@@H]([C@@H](C)O)C(=O)N(C)[C@@H](Cc2ccccc2)C(=O)N[C@@H](CC(C)C)C(=O)N2CCC[C@H]2C(=O)N(C)[C@@H](C(C)C)C(=O)N[C@@H](Cc2ccccc2)C(=O)N(C)CC(=O)N(C)[C@@H](CC(C)C)C(=O)N[C@@H](C)C(=O)N1C [DP-27] (AT[NMeF]LP[NMeV]F[Sar][NMeL]A[NMeI]D-Piperidide; lactam N-12) — 1.9-fold higher, 31 µL/min/mg
- CC[C@H](C)[C@@H]1NC(=O)[C@H](Cc2ccccc2)N(C)C(=O)[C@H](Cc2ccccc2)NC(=O)[C@H](CC(C)C)N(C)C(=O)[C@H](C(C)C)NC(=O)[C@H](CC(C)C)NC(=O)[C@H](C)N(C)C(=O)CNC(=O)[C@H](C)NC(=O)C[C@@H](C(=O)N2CCCCC2)NC(=O)[C@H]([C@@H](C)O)NC(=O)[C@H](CC(C)C)NC(=O)[C@H](C)N(C)C1=O [DP-83] (AG[NMeA]LV[NMeL]F[NMeF]I[NMeA]LTD-Piperidide; lactam N-13) — 2.4-fold higher, 39 µL/min/mg
- CC[C@H](C)[C@@H]1NC(=O)[C@H](C)N(C)C(=O)[C@H](Cc2ccccc2)NC(=O)[C@H](Cc2ccccc2)NC(=O)[C@H](CC(C)C)NC(=O)[C@H](C(C)C)N(C)C(=O)[C@H](CC(C)C)NC(=O)[C@H](C)NC(=O)[C@H](C)NC(=O)C[C@@H](C(=O)N2CCCCC2)NC(=O)CNC(=O)[C@H]([C@@H](C)O)NC1=O [DP-84] (AAL[NMeV]LFF[NMeA]ITGD-Piperidide; lactam N-12) — within 1.5-fold, 21 µL/min/mg
- CC[C@H](C)[C@@H]1NC(=O)[C@H](Cc2ccccc2)N(C)C(=O)[C@H](Cc2ccccc2)NC(=O)[C@H](C(C)C)N(C)C(=O)[C@H](CC(C)C)N(C)C(=O)[C@H](CC(C)C)NC(=O)[C@H](C)NC(=O)C[C@@H](C(=O)N2CCCCC2)NC(=O)[C@H]([C@@H](C)O)NC(=O)CNC(=O)[C@H](C)N(C)C1=O [DP-85] (AL[NMeL][NMeV]F[NMeF]I[NMeA]GTD-Piperidide; lactam N-11) — 3.6-fold higher, 58 µL/min/mg
- CC[C@H](C)[C@@H]1NC(=O)[C@H](Cc2ccccc2)N(C)C(=O)[C@H](Cc2ccccc2)NC(=O)[C@H](CC(C)C)N(C)C(=O)[C@H](CC(C)C)NC(=O)[C@H](C)NC(=O)C[C@@H](C(=O)N2CCCCC2)NC(=O)[C@H]([C@@H](C)O)NC(=O)[C@H](C)N(C)C1=O [DP-86] (AL[NMeL]F[NMeF]I[NMeA]TD-Piperidide; lactam N-9) — 15-fold higher, 237 µL/min/mg

Source: patent US9409952B2, “Peptide-compound cyclization method” (Chugai Seiyaku Kabushiki Kaisha, priority 2011, dated 2016)
